Here are results for nine compounds from article PMC6270209, “Synthesis, Antimycobacterial Activity and In Vitro Cytotoxicity of 5-Chloro-N-phenylpyrazine-2-carboxamides” (Molecules, 2013).

A word on the IC50: it is the concentration needed to halve the response being measured. As usually defined, the melting point is the temperature of the solid-liquid transition.

One data set deals with M. avium CNCTC My 152/73. As to the kind of experiment: In vitro antimycobacterial activity, microdilution panel method (MIC). The data set is classed as cell-based, Mycobacterium avium. The following applies: for MIC: Mycobacterium avium. (In general: Dilution methods test growth across graded concentrations, often in twofold steps.)
Another data set is described as follows: in vitro. The note with it: human.
Data set [1] has as its system M. avium ssp. avium Chester CNCTC My 80/72. The data set can be described thus: In vitro antimycobacterial activity, microdilution panel method (MIC). The format is cell-based, Mycobacterium avium. The following applies: for MIC: Mycobacterium avium.
For data set [2], the system named is Chinese hamster ovary (CHO-K1) cell line. As to the kind of experiment: cells. The following applies: Cricetulus griseus, CHO-K1, 24 h, read-out: CHO-K1 IC50.
The subject of data set [3] is HepG2 cells. The data set can be described thus: cells. The note with it: Homo sapiens, HepG2, read-out: HepG2 IC50.
For data set [4], the system named is renal cell adenocarcinoma (ACHN) cell line. As to the kind of experiment: cells. The following applies: Homo sapiens, 24 h, read-out: ACHN IC50.
Data set [5] deals with M. tuberculosis H37Rv CNCTC My 331/88. The data set can be described thus: In vitro antimycobacterial activity, microdilution panel method (MIC). The format is cell-based, Mycobacterium tuberculosis.
In data set [6] the test system is HepG2 cells.
The test system of data set [7] is M. kansasii Hauduroy CNCTC My 235/80. The data set can be described thus: In vitro antimycobacterial activity, microdilution panel method (MIC). The format is cell-based, Mycobacterium kansasii. The note with it: for MIC: Mycobacterium kansasii.
The subject of data set [8] is renal cell adenocarcinoma (ACHN) cell line.
Data set [9] has as its system Chinese hamster ovary (CHO-K1) cell line.
For data set [10] the following is noted: RP-HPLC, C18, MeOH 70% / H2O 30%, 30 °C.
The test system of data set [11] is HepG2 cells. The note with it: comparable HepG2 cytotoxicity assay; cited from earlier work.
The nature of data set [12]: Solubility in antimycobacterial testing medium (observation). The data set is classed as physicochemical.
The mark [13] stands for this setting: Mycobacterium tuberculosis, H37RV, pH 5.6, M. tuberculosis H37Rv, primary test, dilution scale 100–[…], Šula's medium pH 5.6, read-out: Antimycobacterial activity MIC, M. tbc.
Where [14] appears, read: Mycobacterium tuberculosis, H37RV, read-out: M. tbc H37Rv MIC (µM), MIC converted to molar concentrations.
The mark [15] stands for this setting: M. kansasii Hauduroy CNCTC My 235/80.
Setting [16] is: Mycobacterium tuberculosis, H37RV, M. tuberculosis H37Rv, retest with extended dilution scale up to 0.39 µg/mL, read-out: Antimycobacterial activity MIC, M. tbc (confirmation retest, value in parentheses).
Setting [17] is: Mycobacterium tuberculosis, H37RV, MIC converted to molar concentrations, read-out: M. tbc H37Rv MIC.
Setting [18] is: SI calculated for M. tbc as IC50 (HepG2)/MIC (in μM) using the lower MIC values (Table 1).

Converted amounts (≈) assume the structure as drawn. Like-named read-outs stand apart in the source and are kept apart here.

With `NC(=O)c1cnc(Cl)cn1` [Compound 5-Cl-PZA, 5-chloropyrazine-2-carboxamide, reference compound], the MIC is > 100 mg/L in the data set with M. avium CNCTC My 152/73; > 100 mg/L in data set [1]; 25 mg/L in data set [5] (setting [13]); 159 µM in data set [5] (setting [14]); 12.5 mg/L (≈ 79.3 µM) in [7] (setting [15]). Also, the half-maximal inhibitory concentration (IC50) in the data set “in vitro” was found to be 1590 µM; in data set [2], 290 ± 43 µM; in the data set on HepG2 cells [3], 1590 µM; in data set [4], 540 ± 120 µM. Besides, in the data set on HepG2 cells [6] (human), the “Cytotoxicity SI” value was determined as 10.0.
Take `O=C(Nc1ccc(C(=O)O)c(O)c1)c1cnc(Cl)cn1` [Compound 30, 4-(5-Chloropyrazine-2-carboxamido)-2-hydroxybenzoic acid]: the melting point is 240 to 244 °C (dec.). For the same compound, the MIC in the data set on M. avium CNCTC My 152/73 is > 100 mg/L. In addition, the “Cytotoxicity rating in ACHN cell line (in words)” value in data set [8] was “non-toxic”. Also, in data set [1], the MIC is > 100 mg/L. In addition, the IC50 in [2] came out at 502 ± 122 µM. The IC50 in data set [4] stood at 371 ± 96 µM. Moreover, in data set [5] (MIC converted to molar concentrations, read-out: M. tbc H37Rv MIC), the MIC was 10.7 µM. Also, in [5] (MIC for M. tbc H37Rv in µM compared), the “Activity in comparison with PZA (times more active)” value is recorded as 5–10 times. For the same compound, in data set [5] (setting [13]), the MIC came out at 3.13 mg/L. Also, the MIC in [5] (setting [14]) was 10 µM. Further, the “Cytotoxicity rating in CHO-K1 cell line (in words)” value in data set [9] is “non-toxic”.
`O=C(Nc1cc(Cl)ccc1O)c1cnc(Cl)cn1` [Compound 21, 5-Chloro-N-(5-chloro-2-hydroxyphenyl)pyrazine-2-carboxamide]: the “Antimycobacterial activity MIC, M. avium” value (with M. avium CNCTC My 152/73; in data set [1]) was 12.5 mg/L in each case. The MIC in the data set with M. avium CNCTC My 152/73 amounted to 12.5 mg/L (≈ 44 µM); in data set [1], 12.5 mg/L (≈ 44 µM); in data set [5] (setting [16]) it was 6.25 mg/L; in data set [5] (setting [17]), 5.5 µM; in data set [5] (setting [13]), 1.56 mg/L; in data set [7] (setting [15]), 12.5 mg/L (≈ 44 µM). For the same compound, the IC50 in the data set “in vitro” came out at 40.6 µM; in data set [2] it was 39 ± 2 µM; with HepG2 cells [3], 41 µM; in data set [4], 51 ± 14 µM. Further, in the data set on HepG2 cells [6] (setting [18]), the “Cytotoxicity SI” value was 7.39. The “Antimycobacterial activity MIC, M. kansasii” value in data set [7] (setting [15]) turned out to be 12.5 mg/L.
Regarding `NNC(=O)c1ccncc1` [INH, isoniazid, reference compound], the MIC against M. avium CNCTC My 152/73 lay within 3.13 to 6.25 mg/L (≈ 22.8 to 45.6 µM); in data set [1], 12.5 to 25 mg/L (≈ 91.1 to 182 µM); in [5] (setting [13]), 0.39 to 0.78 mg/L; in data set [7] (setting [15]) it was 12.5 to 25 mg/L (≈ 91.1 to 182 µM). The Lipophilicity logk in data set [10] is reported as −0.743. In addition, in the data set on HepG2 cells [11], the IC50 is 79000 µM.
With `O=C(Nc1ccc(I)cc1Cl)c1cnc(Cl)cn1` [Compound 18, 5-Chloro-N-(2-chloro-4-iodophenyl)pyrazine-2-carboxamide], the melting point is 175.6 to 177.3 °C. The MIC in the data set on M. avium CNCTC My 152/73 is > 50 mg/L. The “Solubility in testing medium (in words)” value in data set [12] is recorded as “low solubility”. The MIC in data set [1] was > 50 mg/L. Moreover, in data set [5], the “Antimycobacterial activity against M. tbc H37Rv (in words)” value (“Antimycobacterial activity … (in words)” below) is “inactive or weakly active”. The MIC in [5] (setting [13]) stood at 12.5 mg/L. In addition, the “Activity against M. kansasii (in words)” value in data set [7] is “most active”. In [7] (setting [15]), the MIC is 1.56 mg/L (≈ 3.96 µM).
Regarding `NC(=O)c1cnccn1` [PZA, pyrazinamide, reference compound], the MIC is > 100 mg/L in the data set with M. avium CNCTC My 152/73; > 100 mg/L in [1]; 6.25 to 12.5 mg/L in [5] (setting [13]); 51 to 102 µM in data set [5] (setting [14]); > 100 mg/L in data set [7] (setting [15]). The Lipophilicity logk in data set [10] is reported as −0.687. For the same compound, the IC50 in “in vitro” was > 10000 µM. For the same compound, the “Cytotoxicity SI” value in the data set with HepG2 cells [6] (human) is >196.
`O=C(Nc1ccc(O)cc1)c1cnc(Cl)cn1` [Compound 4, 5-Chloro-N-(4-hydroxyphenyl)pyrazine-2-carboxamide]: the MIC in the data set with M. avium CNCTC My 152/73 was 50 mg/L (≈ 200 µM); in [1], > 100 mg/L; in [5] (setting [16]), 12.5 mg/L; in data set [5] (setting [17]) it was 12.5 µM; in data set [5] (setting [13]), 3.13 mg/L; in data set [7] (setting [15]), 100 mg/L (≈ 401 µM). The IC50 in the data set “in vitro” was determined as 68.6 µM; in [2] it was 48 ± 4 µM; with HepG2 cells [3] it was 69 µM; in [4], 100 ± 39 µM. Moreover, the “Cytotoxicity SI” value in the data set with HepG2 cells [6] (setting [18]) is listed as 5.47. The “Activity against M. kansasii (in words)” value in data set [7] was “inactive”.
Take `COc1ccc(NC(=O)c2cnc(Cl)cn2)c(OC)c1` [Compound 5]: the MIC (in the data set on M. avium CNCTC My 152/73; in data set [1]; in data set [5] (setting [13]); in data set [7] (setting [15])) was > 50 mg/L throughout. Also, the “Solubility in testing medium (in words)” value in data set [12] is on record as “Insufficient solubility”. Also, the “Antimycobacterial activity … (in words)” value in data set [5] is “inactive”.
`O=C(Nc1cc(Cl)c(Cl)cc1Cl)c1cnc(Cl)cn1` [Compound 15, 5-Chloro-N-(2,4,5-trichlorophenyl)pyrazine-2-carboxamide] registered a melting point of 189.3 to 192.4 °C. Also, the MIC with M. avium CNCTC My 152/73 is > 100 mg/L. For the same compound, in data set [12], the “Solubility in testing medium (in words)” value is “low solubility”. In data set [1], the MIC was > 100 mg/L. Besides, the “Antimycobacterial activity … (in words)” value in data set [5] is “inactive or weakly active”. The MIC in data set [5] (setting [13]) was > 100 mg/L. For the same compound, the MIC in data set [7] (setting [15]) is > 100 mg/L.
